{"source": "patent US20120208776A1", "about": "(priority 2002, published 2012)", "tested_on": "cyclin D1 mRNA in MCF7 cells", "test": "RT-PCR of mRNA", "assay_type": "cell-based, human", "protocol": "FIG. 13 illustrates the effects of actein on cyclin D1 mRNA in MCF7 cells (RT-PCR). MCF7 cells were treated with DMSO or actein for 3, 10, or 24 h. RNA was isolated and analyzed by RT-PCR, using primers for cyclin D1 and actin (control). The staining intensities of the visualized blots were quantified using NIH image software. The relative band intensities were determined by comparing treated samples with untreated controls. These values were then normalized (fold), using β-actin as an internal control."}
{"smiles": "CC(=O)O[C@@H]1C[C@@]23C[C@@]24CC[C@H](O[C@@H]2OC[C@@H](O)[C@H](O)[C@H]2O)C(C)(C)[C@@H]4CC[C@H]3[C@]2(C)C[C@@H]3O[C@]4(C[C@@H](C)[C@@H]3[C@@]12C)O[C@H](O)[C@@]1(C)O[C@@H]41", "note": "[actein]", "values": [{"measurement": "cyclin D1 mRNA (RT-PCR)", "setting": "3 h, 20 μg/ml", "result": 0.91, "unit": "fold"}, {"measurement": "cyclin D1 mRNA (RT-PCR)", "setting": "3 h, 40 μg/ml", "result": 0.94, "unit": "fold"}, {"measurement": "cyclin D1 mRNA (RT-PCR)", "setting": "10 h, 20 μg/ml", "result": 1.1, "unit": "fold"}, {"measurement": "cyclin D1 mRNA (RT-PCR)", "setting": "10 h, 40 μg/ml", "result": 0.93, "unit": "fold"}, {"measurement": "cyclin D1 mRNA (RT-PCR)", "setting": "24 h, 20 μg/ml", "result": 0.84, "unit": "fold"}, {"measurement": "cyclin D1 mRNA (RT-PCR)", "setting": "24 h, 40 μg/ml", "result": 0.66, "unit": "fold"}]}
